Entries after “also recorded” stand apart in the source; their conditions may differ.
Experiment: Formation of shelf-stable and visually clear MOIW microemulsions with different constituents
Type: physicochemical
From the text: A shelf-stable microemulsion may be determined in one of two ways. […] Either type of dissociation means that the microemulsion is not shelf-stable.
A visually clear microemulsion has an average particle diameter of 200 nm and less and lacks precipitated solid crystals visible to the naked eye.

| Molecule | usefulness of the constituent for forming shelf-stable and visually clear MOIW microemulsions |
| --- | --- |
| OC[C@@H](O)[C@@H](O)CO [erythritol] | not useful |
| OC[C@@H](O)[C@@H](O)[C@H](O)[C@H](O)CO [mannitol] | not useful |
| OC[C@@H](O)[C@@H](O)[C@H](O)[C@@H](O)CO [sorbitol] | not useful |
| OC[C@@H](O)[C@H](O)[C@@H](O)CO [xylitol] | not useful |
| polysorbate 20 | did not form shelf-stable and visually clear microemulsions; also recorded: not useful |

Reference: patent publication US20220233441A1, “MIC[…] SYSTEMS FOR CANNABIS EXTRACTS AND […]” (Quicksilver Scientific, Inc., priority 2019, published 2022)
